Test results from patent US6608086B2, “Dihydropyridines and new uses thereof” (Synaptic Pharmaceutical Corporation, priority 1993, dated 2003).
Structures can show the parent of a compound that is named as a salt. Where two headings read alike, the source gives them in different places.

Assays:
[1] = molecular target: T1, α1A Human Adrenergic Receptor (Homo sapiens, UniProt P25100); experiment: Radioligand binding, [3H]prazosin, cloned human α1A adrenergic receptor
T1 construct: The entire coding region of α1A (1719 bp); expressed in transfected cells
T1 sequence (P25100 1-572): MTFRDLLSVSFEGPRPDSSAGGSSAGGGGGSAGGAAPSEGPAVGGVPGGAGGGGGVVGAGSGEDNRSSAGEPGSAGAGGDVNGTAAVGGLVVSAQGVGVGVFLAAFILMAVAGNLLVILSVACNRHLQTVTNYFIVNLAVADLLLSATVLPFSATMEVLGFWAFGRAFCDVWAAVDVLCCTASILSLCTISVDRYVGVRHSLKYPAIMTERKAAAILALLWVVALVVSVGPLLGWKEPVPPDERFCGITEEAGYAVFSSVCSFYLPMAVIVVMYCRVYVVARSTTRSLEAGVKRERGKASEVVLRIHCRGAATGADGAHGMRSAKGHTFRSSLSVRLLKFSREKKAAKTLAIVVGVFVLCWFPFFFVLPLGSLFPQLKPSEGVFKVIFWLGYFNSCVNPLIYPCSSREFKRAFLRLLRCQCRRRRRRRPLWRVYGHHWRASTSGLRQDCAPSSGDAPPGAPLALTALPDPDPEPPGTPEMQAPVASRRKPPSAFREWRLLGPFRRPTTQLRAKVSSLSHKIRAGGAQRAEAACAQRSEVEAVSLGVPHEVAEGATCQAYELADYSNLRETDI
Method: (§1) The protocols for these experiments are given below.
(§2) These cell lines were prepared by transfecting the cloned cDNA or cloned genomic DNA or constructs containing both genomic DNA and cDNA encoding the human α-adrenergic receptors as follows:
α1A Human Adrenergic Receptor:
The cells were grown, in a controlled environment (37° C., 5% CO2), as monolayers in Dulbecco's modified Eagle's Medium (GIBCO, Grand Island, N.Y.) containing 25 mM glucose and supplemented with 10% bovine calf serum, 100 units/ml penicillin g, and 100 μg/ml streptomycin sulfate.
(§3) Radioligand Binding Assays:
(§4) Transfected cells from culture flasks were scraped into 5 ml of 5 mM Tris-HCl, 5 mM EDTA, pH 7.5, and lysed by sonication. The cell lysates were centrifuged at 1000 rpm for 5 min at 4° C., and the supernatant was centrifuged at 30,000× g for 20 min at 4° C. The pellet was suspended in 50 mM Tris-HCl, 1 mM MgCl2, and 0.1% ascorbic acid at pH 7.5. Binding of the α1 antagonist [^3H]prazosin (0.5 nM, specific activity 76.2 Ci/mmol) to membrane preparations of LM(tk−) cells was done in a final volume of 0.25 ml and incubated at 37° C. for 20 min. Nonspecific binding was determined in the presence of 10 μM phentolamine. The reaction was stopped by filtration through GF/B filters using a cell harvester.

[2] = molecular target: T2, α1C Human Adrenergic Receptor (Homo sapiens, UniProt P35348); experiment: Radioligand binding, [3H]prazosin, cloned human α1C adrenergic receptor
T2 construct: The entire coding region of α1C (1401 bp); expressed in transfected cells
T2 sequence (P35348 1-466): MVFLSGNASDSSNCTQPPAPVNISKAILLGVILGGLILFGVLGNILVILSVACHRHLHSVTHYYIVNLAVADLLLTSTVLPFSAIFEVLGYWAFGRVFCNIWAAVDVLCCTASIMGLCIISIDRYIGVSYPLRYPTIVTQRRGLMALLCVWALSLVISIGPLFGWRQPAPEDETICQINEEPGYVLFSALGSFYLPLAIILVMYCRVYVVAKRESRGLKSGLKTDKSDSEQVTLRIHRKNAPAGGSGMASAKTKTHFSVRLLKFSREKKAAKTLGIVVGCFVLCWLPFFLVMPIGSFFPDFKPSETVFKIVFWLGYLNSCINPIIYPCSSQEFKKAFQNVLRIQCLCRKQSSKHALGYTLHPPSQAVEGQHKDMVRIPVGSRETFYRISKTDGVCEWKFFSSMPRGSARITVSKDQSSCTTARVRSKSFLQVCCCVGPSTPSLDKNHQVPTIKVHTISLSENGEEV
Method: as §1, §2
α1C Human Adrenergic Receptor:
The construct involved ligating three partial overlapping fragments: a 5′, 0.6 kb HincII genomic clone, a central 1.8 EcoRI hippocampal cDNA clone, and a 3′ 0.6Kb PstI genomic clone. The hippocampal cDNA fragment overlaps with the 5′ and 3′ genomic clones so that the HincII and PstI sites at the 5′ and 3′ ends of the cDNA clone, respectively, were utilized for ligation. This full-length clone was cloned into the KpnI site of the expression vector, using the 5′ and 3′ KpnI sites of the fragment, derived from vector (i.e., pBluescript) and 3′-untranslated sequences, respectively. Stable cell lines were selected as described above.
as §3, §4

[3] = molecular target: T3, α1B Human Adrenergic Receptor (Homo sapiens, UniProt P35368); experiment: Radioligand binding, [3H]prazosin, cloned human α1B adrenergic receptor
T3 construct: The entire coding region of α1B (1563 bp); expressed in transfected cells
T3 sequence (P35368 1-520): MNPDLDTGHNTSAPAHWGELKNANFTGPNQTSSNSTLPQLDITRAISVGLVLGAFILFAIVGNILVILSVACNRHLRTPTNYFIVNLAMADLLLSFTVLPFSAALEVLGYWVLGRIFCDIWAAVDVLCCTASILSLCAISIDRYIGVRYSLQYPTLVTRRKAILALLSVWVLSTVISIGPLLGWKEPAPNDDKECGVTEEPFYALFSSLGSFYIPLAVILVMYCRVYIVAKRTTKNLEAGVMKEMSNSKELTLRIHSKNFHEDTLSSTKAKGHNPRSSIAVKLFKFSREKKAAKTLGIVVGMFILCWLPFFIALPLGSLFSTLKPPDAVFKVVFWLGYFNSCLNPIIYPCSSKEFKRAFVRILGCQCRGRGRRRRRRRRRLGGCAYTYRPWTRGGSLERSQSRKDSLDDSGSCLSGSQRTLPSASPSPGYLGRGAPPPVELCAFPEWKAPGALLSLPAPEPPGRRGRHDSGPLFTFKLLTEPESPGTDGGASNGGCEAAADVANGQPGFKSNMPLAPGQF
Method: as §1, §2
α1B Human Adrenergic Receptor:
The construct involved ligating the full-length containing EcoRI brainstem cDNA fragment from λ ZapII into the expression vector. Stable cell lines were selected as described above.
as §3, §4

[4] = cloned human α1C receptor, LM(tk−) cell membranes, read-out: pKi alpha-1 1c (converted)
[5] = cloned human α1B receptor, LM(tk−) cell membranes, read-out: pKi alpha-1 1b (converted)
[6] = [3H]prazosin, cloned human α1A receptor, LM(tk−) cell membranes, read-out: pKi alpha-1 1a (converted)
[7] = [3H]prazosin, cloned human receptor, LM(tk-) cell membranes, mean, read-out: PKi alpha-1 1a (converted)
[8] = cloned human receptor, LM(tk-) cell membranes, mean, read-out: PKi alpha-1 1c (converted)
[9] = cloned human receptor, LM(tk-) cell membranes, mean, read-out: PKi alpha-1 1b (converted)

Q: For `CCC1=C(C(N)=O)C(c2ccc([N+](=O)[O-])cc2)C(C(=O)NCCCN2CCC(c3ccccc3)(c3ccccc3)CC2)=C(COCCN=[N+]=[N-])N1` (centres unmarked), which melting point is on record?
A: 88 to 93 °C

Q: Which melting point does the source give for `CCOC(=O)C1=C(CC(=O)NCCCN2CCC(c3ccccc3)(c3ccccc3)CC2)NC(C)=C(C(=O)OC)C1c1ccc([N+](=O)[O-])cc1` (centres unmarked) (as salt: fumarate) [Example 89, 3-Ethoxycarbonyl-1,4-dihydro-5-methoxycarbonyl-6-methyl-4-(4-nitro)phenyl-2-(N-(3-(4,4,-diphenylpiperidin-1-yl)propyl)carboxamido)methylpyridine, fumarate salt] here?
A: 134 to 137 °C

Q: For `COC(=O)C1=C(C)NC(C)=C(C(=O)NCCCCN2CCC(c3ccccc3)CC2)C1c1ccc([N+](=O)[O-])cc1` (centres unmarked) (as salt: hydrochloride) (hydrate or solvate) [Example 3, 1,4-Dihydro-3-methoxycarbonyl-2,6-dimethyl-4-(4-nitrophenyl)-5-{N-[4-(4-phenylpiperidin-1-yl)butyl]}carbozamidopyridine hydrochloride hydrate], which melting point is on record?
A: 136 to 137 °C

Q: With `CCC1=C(C(=O)NCCCN2CCC(c3ccccc3)(c3ccccc3)CC2)C(c2ccc([N+](=O)[O-])cc2)C(C(=O)OCc2ccccc2)=C(C)N1` (centres unmarked) (as salt: hydrochloride) (hydrate or solvate) [Example 4, 5-Benzyloxycarbonyl-2-ethyl-1,4-dihydro-6-methyl-4-(4-nitrophenyl)-3-(N-(3-(4,4-diphenylpiperidin-1-yl)propyl)carboxamido) pyridine, Hydrochloride Salt, Hydrate] as the molecule, how does the melting point read?
A: 195 to 198 °C (dec.)

Q: With `CNC(=O)C1=C(C)NC(C)=C(C(=O)NCCCN2CCC(c3ccccc3)(c3ccccc3)CC2)C1c1ccc([N+](=O)[O-])cc1` (single isomer, unassigned; (+)) [(+)-119, 1,4-dihydro-2,6-dimethyl-5-(N-methyl) carboxamido-4-(4-nitrophenyl)-3-{N-[3-(4,4-diphenylpiperidin-1-yl)propyl]} carboxamidopyridine] as the molecule, how does the Ki ([1]; pKi alpha-1 1a) read?
A: 1290 nM

Q: What about the Ki [2, 4] of the same molecule?
A: 380 nM

Q: And the Ki [3, 5]?
A: 832 nM

Q: What does the source list for `CNC(=O)C1=C(C)NC(C)=C(C(=O)NCCCN2CCC(c3ccccc3)(c3ccccc3)CC2)C1c1ccc([N+](=O)[O-])cc1` (single isomer, unassigned; (-)) [(−)-119, 1,4-dihydro-2,6-dimethyl-5-(N-methyl) carboxamido-4-(4-nitrophenyl)-3-{N-[3-(4,4-diphenylpiperidin-1-yl)propyl]} carboxamidopyridine]?
A: Ki ([1]; pKi alpha-1 1a): 1170 nM; Ki [2, 4]: 2.57 nM; Ki [3, 5]: 676 nM

Q: With `COC(=O)C1=C(C)NC(C)=C(C(=O)NCCCN2CCc3ccccc3C2)C1c1ccc([N+](=O)[O-])cc1` (centres unmarked) [Example 59, 1,4-Dihydro-5-{N-[3-(1,2,3,4-tetrahydroisoquinolin-2-yl)propyl]}carboxamido-3-methoxycarbonyl-2,6-dimethyl-4-(4-nitrophenyl)pyridine hydrochloride hydrate] as the molecule, how does the Ki ([1]; [3H]prazosin, cloned human receptor in LM(tk-) cell membranes, SEM and n in lines below, read-out: pKi alpha-1 1a (converted)) read?
A: 513 nM

Q: What about the Ki ([2]; cloned human receptor in LM(tk-) cell membranes, SEM and n in lines below, read-out: pKi alpha-1 1c (converted)) of the same molecule?
A: 245 nM

Q: And the Ki ([3]; cloned human receptor in LM(tk-) cell membranes, SEM and n in lines below, read-out: pKi alpha-1 1b (converted))?
A: 389 nM

Q: Which Ki [1, 6] does the source give for `CCC1=C(C(=O)NC)C(c2ccc([N+](=O)[O-])cc2)C(C(=O)NCCCN2CCC(OC)(c3ccccc3)CC2)=C(CC)N1` (centres unmarked) [Example 108] here?
A: 2950 nM

Q: What about the Ki [2, 4] of the same molecule?
A: 6.92 nM

Q: And the Ki [3, 5]?
A: 4170 nM

Q: What does the source list for `CCC1=C(C(=O)O)C(c2ccc([N+](=O)[O-])cc2)C(C(=O)NCCCN2CCC(c3ccccc3)(c3ccccc3)CC2)=C(CC)N1` (centres unmarked) [Example 130, 2,6-Diethyl-1,4-dihydro-4-(4-nitrophenyl)-5-{N-[3-(4,4-diphenylpiperidin-1-yl)propyl]}carboxamidopyridine-3-carboxylic acid]?
A: Ki [1, 6]: 912 nM; Ki [2, 4]: 10.7 nM; Ki [3, 5]: 417 nM

Q: With `CCC1=C(C(=O)NCCCN2CCC(c3ccccc3)(c3ccccc3)CC2)C(c2ccc([N+](=O)[O-])cc2)C(C(=O)OC(C)(C)C)=C(COCCN)N1` (centres unmarked) [Example 140] as the molecule, how does the Ki [1, 6] read?
A: 7240 nM

Q: What about the Ki [2, 4] of the same molecule?
A: 7080 nM

Q: And the Ki [3, 5]?
A: 14500 nM

Q: What does the source list for `CC1=C(C(=O)OCC[Si](C)(C)C)C(c2ccc([N+](=O)[O-])cc2)C(C(=O)NCCCN2CCC(c3ccccc3)(c3ccccc3)CC2)=C(COCCN=[N+]=[N-])N1` (centres unmarked) [Example 152, 2-((2-Azidoethyl)oxy)methyl-1,4-dihydro-6-methyl-s-(2-trimethylsilylethoxy)carbonyl-4-(4-nitro)phenyl-3-(N-(3-(4,4-diphenylpiperidin-1-yl)propyl))carboxamidopyridine]?
A: Ki [1, 6]: 490 nM; Ki [2, 4]: 933 nM; Ki [3, 5]: 219 nM

Q: Which Ki [1, 7] does the source give for `COC(=O)C1=C(C)NC(C)=C(C(=O)NCCCN2CCC(C(=O)OC)(c3ccccc3)CC2)C1c1ccc([N+](=O)[O-])cc1` (centres unmarked) [Example 206, 1,4-Dihydro-2,6-dimethyl-5-methoxycarbonyl-3-{N-[3-(4-methoxycarbonyl-4-phenylpiperidin-1-yl)propyl]}carboxamido-4-(4-nitrophenyl)pyridine] here?
A: 1150 nM

Q: For `CC1=C(C(N)=O)C(c2ccc([N+](=O)[O-])cc2)C(C(=O)NCCCN2CCC(C#N)(c3ccccc3)CC2)=C(COCCN)N1` (centres unmarked) [Example 215], which Ki [1, 7] is on record?
A: 3390 nM

Q: What about the Ki [2, 8] of the same molecule?
A: 3.63 nM

Q: And the Ki [3, 9]?
A: 1260 nM

Q: Which results are given for `CC(=O)C1=C(C)NC(COCCCN)=C(C(=O)NCCCN2CCC(c3ccccc3)(c3ccccc3)CC2)C1c1ccc([N+](=O)[O-])cc1` (centres unmarked) [Example 236, 5-Acetyl-2-((3-aminopropyl)oxy)methyl-1,4-dihydro-6-methyl-4-(4-nitro)phenyl-3-(N-(3-(4,4-diphenylpiperidin-1-yl)propyl)) carboxamidopyridine]?
A: Ki [1, 7]: 347 nM; Ki [2, 8]: 2.51 nM; Ki [3, 9]: 204 nM
